Results reported in patent US7855202B2, “Imidazopyridine derivatives as A2B adenosine receptor antagonists” (Laboratorios Almirall, S.A., priority 2005, dated 2010).

Molecular target: T1, human A2B receptor (Homo sapiens, UniProt P29275)
T1 construct: membranes prepared from them
T1 sequence (P29275 1-332): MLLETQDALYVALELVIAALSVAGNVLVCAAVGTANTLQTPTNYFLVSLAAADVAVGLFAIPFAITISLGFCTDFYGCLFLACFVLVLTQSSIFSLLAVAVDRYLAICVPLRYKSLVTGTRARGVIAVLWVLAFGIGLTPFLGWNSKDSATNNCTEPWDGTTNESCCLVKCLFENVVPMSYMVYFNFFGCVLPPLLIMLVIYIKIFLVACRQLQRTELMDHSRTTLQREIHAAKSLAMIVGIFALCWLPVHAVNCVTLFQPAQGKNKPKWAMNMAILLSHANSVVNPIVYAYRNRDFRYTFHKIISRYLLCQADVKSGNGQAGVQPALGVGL
Assay: Adenosine 2B receptor subtype competition radioligand binding assay ([3H]-DPCPX, membranes of HEK293 cells)
Conditions: binding activity, 35 nM [3H]-DPCPX, A2B membranes from HEK293 cells
Experimental: Adenosine 2B Receptor Subtype Competition Radioligand Binding Assay
A2B membranes were prepared from HEK293 cells stably expressing the human A2B receptor that were purchased from Euroscreen (ES-013-C). Competition assays were carried out incubating in polypropylene 96 well-plates (no 267245, NUNC) containing 2 μl of either 1% DMSO solution, test compound or 100 μM 5′NECA (SIGMA E-2387) for non-specific binding, 100 μg of A2B-membranes (prepared in Tris-HCl 50 mM pH 6.5, MgCl2 10 mM, EDTA 1 mM, benzamidine 0.1 mM; buffer A) and 35 nM [^3H]-DPCPX (TRK1064, 128 Ci/mmol, Amersham), in a total volume of 200 μl of buffer A+2 UI/ml adenosine deaminase, for 60 minutes at room temperature. At the end of the incubation, samples were transferred to a GF/C filter plates (Milipore MAFCNOB50) pretreated for 15 min. with 250 μl of Tris-HCl 50 mM pH 6.5 (Buffer B). Samples were then filtered 4 times with 250 μl of buffer B. Samples were counted using 30 μl of Hisafe II (Perkin Elmer) in a Trilux counter.

Compound | Ki
O=C(O)c1ccc(-c2nc3cc(-c4ccncc4F)c(-c4cccnc4)nc3[nH]2)cc1 [Example 11, 4-[6-(3-Fluoropyridin-4-yl)-5-pyridin-3-yl-3H-imidazo[4,5-b]pyridin-2-yl]benzoic acid] | 8 nM
Fc1ccc(Cc2nc3cc(-c4ccncc4F)c(-c4cccnc4)nc3[nH]2)cc1 [Example 16, 2-(4-Fluorobenzyl)-6-(3-fluoropyridin-4-yl)-5-pyridin-3-yl-3H-imidazo[4,6-b]pyridine] | 24 nM
O=c1[nH]c2cc(-c3ccncc3)c(-c3ccncc3F)nc2[nH]1 [Example 23, 5-(3-Fluoropyridin-4-yl)-6-pyridin-4-yl-1,3-dihydro-2H-imidazo[4,5-b]pyridin-2-one] | 7 nM
O=c1[nH]c2cc(-c3ccncc3F)c(-c3ncco3)nc2[nH]1 [Example 32, 6-(3-Fluoropyridin-4-yl)-5-(1,3-oxazol-2-yl)-1,3-dihydro-2H-imidazo[4,5-b]pyridin-2-one] | 24 nM
Fc1cnccc1-c1cc2nc(-c3cccnc3)[nH]c2nc1-c1cccnc1 [Example 39, 6-(3-Fluoropyridin-4-yl)-2,5-dipyridin-3-yl-3H-imidazo[4,5-b]pyridine] | 3.8 nM
Cn1cncc1-c1nc2cc(-c3ccncc3F)c(-c3cccnc3)nc2[nH]1 [Example 46, 6-(3-Fluoropyridin-4-yl)-2-(1-methyl-1H-imidazol-5-yl)-5-pyridin-3-yl-3H-imidazo[4,5-b]pyridine] | 9.5 nM
O=C(O)c1ccc(-c2nc3cc(-c4c(F)cncc4F)c(-c4cccnc4)nc3[nH]2)cc1 [Example 66, 4-[6-(3,5-Difluoropyridin-4-yl)-5-pyridin-3-yl-3H-imidazo[4,5-b]pyridin-2-yl]benzoic acid] | 23 nM
O=c1[nH]c2cc(-c3c(F)cncc3F)c(-c3cccnc3)nc2[nH]1 [Example 67, 6-(3,5-Difluoropyridin-4-yl)-5-pyridin-3-yl-1,3-dihydro-2H-imidazo[4,5-b]pyridin-2-one] | 26 nM

Compounds with a lower Ki, results first:

Ki | Compound
0.8 nM | COc1ccc(-c2nc3cc(-c4ccncc4F)c(-c4cccnc4)nc3[nH]2)cc1 [Example 6, 6-(3-Fluoropyridin-4-yl)-2-(4-methoxyphenyl)-6-pyridin-3-yl-3H-imidazo[4,5-b]pyridine]
1.7 nM | CN(C)c1ccc(-c2nc3cc(-c4ccncc4F)c(-c4cccnc4)nc3[nH]2)cc1 [Example 7, N-{4-[6-(3-Fluoropyridin-4-yl)-5-pyridin-3-yl-3H-imidazo[4,5-b]pyridin-2-yl]phenyl}-N,N-dimethylamine]
1.8 nM | Fc1cnccc1-c1cc2nc(-c3ccncc3)[nH]c2nc1-c1cccnc1 [Example 12, 6-(3-Fluoropyridin-4-yl)-5-pyridin-3-yl-2-pyridin-4-yl-3H-imidazo[4,5-b]pyridine]
2.2 nM | Cc1ccc(-c2nc3cc(-c4ccncc4F)c(-c4cccnc4)nc3[nH]2)cc1F [Example 37, 2-(3-Fluoro-4-methylphenyl)-6-(3-fluoropyridin-4-yl)-5-pyridin-3-yl-3H-imidazo[4,5-b]pyridine]
2.8 nM | Fc1cccc(-c2nc3cc(-c4ccncc4F)c(-c4cccnc4)nc3[nH]2)c1 [Example 38, 2-(3-Fluorophenyl)-6-(3-fluoropyridin-4-yl)-5-pyridin-3-yl-3H-imidazo[4,6-b]pyridine]
2.8 nM | Fc1ccc(-c2nc3cc(-c4c(F)cncc4F)c(-c4cccnc4)nc3[nH]2)cc1 [Example 65, 6-(3,5-Difluoropyridin-4-yl)-2-(4-fluorophenyl)-5-pyridin-3-yl-3H-imidazo[4,5-b]pyridine]
